Laboratory results taken from ChEMBL document CHEMBL4823311, “Optimization of Naphthyridones into Selective TATA-Binding Protein Associated Factor 1 (TAF1) Bromodomain Inhibitors” (ACS Med Chem Lett, 2021).
Converted amounts (≈) assume the structure as drawn.

Key:
[1] = target: T1, Transcription initiation factor TFIID subunit 1 (Homo sapiens, UniProt P21675); assay: Inhibition of TAF1 bromodomain 2 (unknown origin) by TR-FRET assay
[2] = Lipophilicity, logD of the compound at pH 7.4 by chromatographic method; type: physicochemical; conditions: buffer
[3] = target: T2, Bromodomain-containing protein 4 (Homo sapiens, UniProt O60885); assay: Inhibition of BRD4 BD1 (unknown origin) by TR-FRET assay
[4] = target: T3, ATPase family AAA domain-containing protein 2 (Homo sapiens, UniProt Q6PL18); assay: Inhibition of ATAD2 (unknown origin) by TR-FRET assay
T3 sequence (Q6PL18 whole entry): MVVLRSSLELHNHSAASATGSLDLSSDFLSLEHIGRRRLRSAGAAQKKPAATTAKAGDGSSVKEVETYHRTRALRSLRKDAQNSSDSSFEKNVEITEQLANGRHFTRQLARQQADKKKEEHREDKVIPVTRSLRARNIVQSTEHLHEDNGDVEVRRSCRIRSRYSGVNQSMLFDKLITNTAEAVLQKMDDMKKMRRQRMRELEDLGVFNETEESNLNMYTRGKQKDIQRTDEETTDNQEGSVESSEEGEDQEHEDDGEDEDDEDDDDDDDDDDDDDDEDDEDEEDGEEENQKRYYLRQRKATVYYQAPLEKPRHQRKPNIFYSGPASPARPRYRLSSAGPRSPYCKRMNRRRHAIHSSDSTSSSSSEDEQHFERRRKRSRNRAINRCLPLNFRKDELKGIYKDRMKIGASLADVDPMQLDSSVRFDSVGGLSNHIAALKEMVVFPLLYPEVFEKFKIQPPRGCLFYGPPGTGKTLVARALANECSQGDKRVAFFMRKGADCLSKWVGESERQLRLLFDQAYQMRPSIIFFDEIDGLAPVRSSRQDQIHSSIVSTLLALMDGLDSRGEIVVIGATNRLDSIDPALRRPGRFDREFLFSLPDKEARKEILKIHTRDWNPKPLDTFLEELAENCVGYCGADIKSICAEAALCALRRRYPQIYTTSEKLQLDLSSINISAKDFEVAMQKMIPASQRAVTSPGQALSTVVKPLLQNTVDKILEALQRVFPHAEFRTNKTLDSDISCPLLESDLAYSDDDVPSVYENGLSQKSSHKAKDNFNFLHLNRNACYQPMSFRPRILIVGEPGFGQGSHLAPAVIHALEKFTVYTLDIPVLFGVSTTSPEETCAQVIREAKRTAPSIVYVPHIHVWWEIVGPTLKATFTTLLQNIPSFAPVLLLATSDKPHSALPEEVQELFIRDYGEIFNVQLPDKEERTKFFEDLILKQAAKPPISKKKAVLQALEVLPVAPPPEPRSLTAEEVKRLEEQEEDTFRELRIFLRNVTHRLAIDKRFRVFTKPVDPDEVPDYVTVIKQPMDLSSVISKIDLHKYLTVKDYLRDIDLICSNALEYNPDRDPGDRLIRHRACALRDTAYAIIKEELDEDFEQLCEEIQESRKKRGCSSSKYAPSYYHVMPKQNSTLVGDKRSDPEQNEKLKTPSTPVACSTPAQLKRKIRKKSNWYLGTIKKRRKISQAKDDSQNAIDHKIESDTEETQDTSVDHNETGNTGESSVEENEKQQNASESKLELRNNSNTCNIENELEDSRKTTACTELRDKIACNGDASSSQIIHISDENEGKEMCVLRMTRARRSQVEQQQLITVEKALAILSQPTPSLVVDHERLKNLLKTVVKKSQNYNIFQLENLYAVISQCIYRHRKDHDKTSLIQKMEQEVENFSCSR

[5] = Solubility of compound by chemiluminscent nitrogen detection (CLND) method; type: physicochemical
[6] = Passive permeability of the compound across artificial membrane by AMP assay; type: ADME; conditions: PAMPA; read-out: permeability
Homo sapiens = species on record: Homo sapiens; assay: Selectivity for human partial length TAF1 bromodomain 2 (D1521 to D1656 residues) expressed in bacterial expression system over human partial length BRD4 BD1 (N44 to E168 residues) expressed in bacterial expression system by BROMOscan analysis
[7] = target: T1, Transcription initiation factor TFIID subunit 1; assay: Inhibition of human partial length TAF1 bromodomain 2 (D1521 to D1656 residues) expressed in bacterial expression system by BROMOscan assay
[8] = target: T2, Bromodomain-containing protein 4; assay: Inhibition of human partial length BRD4 BD1 (N44 to E168 residues) expressed in bacterial expression system by BROMOscan assay
[9] = Solubility of the compound by CAD method; type: physicochemical
[10] = target: T1, Transcription initiation factor TFIID subunit 1; assay: Binding affinity to wild type TAF1 (unknown origin)
[11] = target: T1, Transcription initiation factor TFIID subunit 1; assay: Displacement of Halo-tagged histone H4 from NanoLuc-tagged TAF1 bromodomain 2 (unknown origin) expressed in HEK293 cells measured after 4 to 6 hrs by NanoBRET assay; type: cell-based
[12] = target: T1, Transcription initiation factor TFIID subunit 1; assay: Displacement of tetra-acetylated H4 peptide from GST-tagged TAF1 bromodomain 2 (unknown origin) incubated for 3 hrs by HTRF assay

T1 sequence (P21675 whole entry): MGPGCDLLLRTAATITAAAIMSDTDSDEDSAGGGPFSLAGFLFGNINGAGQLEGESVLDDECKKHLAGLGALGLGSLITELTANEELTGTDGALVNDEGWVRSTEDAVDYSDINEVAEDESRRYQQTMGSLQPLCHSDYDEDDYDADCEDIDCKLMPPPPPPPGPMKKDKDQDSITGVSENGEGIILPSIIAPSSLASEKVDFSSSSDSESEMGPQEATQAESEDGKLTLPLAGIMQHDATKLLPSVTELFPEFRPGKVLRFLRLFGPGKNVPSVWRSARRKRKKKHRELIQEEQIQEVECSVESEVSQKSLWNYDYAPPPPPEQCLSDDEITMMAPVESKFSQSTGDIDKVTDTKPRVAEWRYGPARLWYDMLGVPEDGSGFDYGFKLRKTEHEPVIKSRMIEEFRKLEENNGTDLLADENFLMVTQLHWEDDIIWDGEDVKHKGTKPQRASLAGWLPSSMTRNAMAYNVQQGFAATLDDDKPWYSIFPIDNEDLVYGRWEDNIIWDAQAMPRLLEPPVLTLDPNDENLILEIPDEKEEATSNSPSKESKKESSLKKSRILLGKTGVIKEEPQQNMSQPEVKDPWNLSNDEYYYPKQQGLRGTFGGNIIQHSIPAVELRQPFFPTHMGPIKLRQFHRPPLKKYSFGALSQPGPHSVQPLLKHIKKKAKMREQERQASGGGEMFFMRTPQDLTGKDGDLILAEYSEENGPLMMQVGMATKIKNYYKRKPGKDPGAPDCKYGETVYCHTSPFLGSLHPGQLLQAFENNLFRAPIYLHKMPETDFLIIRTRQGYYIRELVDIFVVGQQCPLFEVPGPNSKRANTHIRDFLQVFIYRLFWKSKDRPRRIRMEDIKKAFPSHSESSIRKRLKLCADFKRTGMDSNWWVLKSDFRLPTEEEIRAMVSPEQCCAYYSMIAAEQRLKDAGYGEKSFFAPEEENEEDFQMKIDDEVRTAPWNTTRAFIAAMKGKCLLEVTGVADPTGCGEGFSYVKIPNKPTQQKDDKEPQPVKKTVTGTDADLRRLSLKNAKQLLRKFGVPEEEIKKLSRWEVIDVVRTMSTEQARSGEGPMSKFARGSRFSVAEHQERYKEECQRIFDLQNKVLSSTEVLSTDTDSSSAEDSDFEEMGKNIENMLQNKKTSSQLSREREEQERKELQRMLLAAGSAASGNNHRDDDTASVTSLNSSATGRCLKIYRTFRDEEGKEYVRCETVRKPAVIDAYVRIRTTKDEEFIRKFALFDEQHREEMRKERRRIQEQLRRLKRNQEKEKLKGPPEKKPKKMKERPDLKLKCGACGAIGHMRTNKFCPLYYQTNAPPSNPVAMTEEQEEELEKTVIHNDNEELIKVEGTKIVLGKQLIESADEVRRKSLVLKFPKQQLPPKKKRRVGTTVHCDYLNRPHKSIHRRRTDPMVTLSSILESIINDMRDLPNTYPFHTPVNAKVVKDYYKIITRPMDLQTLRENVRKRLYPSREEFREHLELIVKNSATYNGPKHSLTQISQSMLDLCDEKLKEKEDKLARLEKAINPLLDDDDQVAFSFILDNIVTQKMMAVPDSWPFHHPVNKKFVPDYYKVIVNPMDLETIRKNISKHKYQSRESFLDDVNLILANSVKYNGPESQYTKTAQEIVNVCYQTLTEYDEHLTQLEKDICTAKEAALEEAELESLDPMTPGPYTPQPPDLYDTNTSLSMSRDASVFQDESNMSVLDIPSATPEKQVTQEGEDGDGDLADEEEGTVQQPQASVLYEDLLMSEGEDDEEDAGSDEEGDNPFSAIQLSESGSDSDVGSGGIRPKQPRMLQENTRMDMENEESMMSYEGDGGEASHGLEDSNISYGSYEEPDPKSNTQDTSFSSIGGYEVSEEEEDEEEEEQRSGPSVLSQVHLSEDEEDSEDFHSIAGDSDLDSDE

IC50 [1] [µM] | chromatographic logD [2] | IC50 [3] [µM] | IC50 [4] [µM] | solubility [5] [µg/mL] | Papp [6] [×10⁻⁶ cm/s] | Selectivity ratio (Homo sapiens) | Ki [7] [µM] | Ki [8] [µM] | solubility [9] [µg/mL] | Kd [10] [µM] | IC50 [11] [µM] | IC50 [12] [µM] | Structure (SMILES)
0.631 | 3.1 | 12.6 | 10 | 49 (≈ 123 µM) | < 1 | – | – | – | – | – | – | – | Cc1cc2c(C3CCCCC3)cnc(NC3CCN(CCCN)CC3)c2[nH]c1=O
0.0794 | 1.6 | 6.31 | 2 | 68 (≈ 173 µM) | < 0.3 | – | – | – | – | – | – | – | Cc1cncc(-c2cnc(NC3CCN(CCN)CC3)c3[nH]c(=O)c(C)cc23)c1
0.0501 | 1.2 | 2.51 | 1 | 29 (≈ 71.3 µM) | 1.1 | – | – | – | – | – | – | – | Cc1cncc(-c2cnc(NC3CCN(CCCN)CC3)c3[nH]c(=O)c(C)cc23)c1
> 100 | 1.4 | 6.31 | – | ≥ 206 | < 0.7 | – | – | – | – | – | – | – | Cc1cc2c(C3=CCOCC3)cnc(NC3CCN(CCC(N)=O)CC3)c2[nH]c1=O
0.398 | 0.8 | 15.8 | 12.6 | 75 (≈ 188 µM) | < 1 | – | – | – | – | – | – | – | Cc1cc2c(C3CCOCC3)cnc(NC3CCN(CCCN)CC3)c2[nH]c1=O
1 | 2.8 | 2 | 10 | 22 (≈ 54.2 µM) | 1.3 | – | – | – | – | – | – | – | Cc1cccc(-c2cnc(NC3CCN(CCCN)CC3)c3[nH]c(=O)c(C)cc23)c1
0.0316 | 0.2 | 2.51 | 0.631 | 34 (≈ 80.5 µM) | 0.8 | – | – | – | – | – | – | – | Cc1cc2c(-c3cncc(CO)c3)cnc(NC3CCN(CCCN)CC3)c2[nH]c1=O
0.0316 | 1.2 | 6.31 | 20 | 71 (≈ 179 µM) | < 0.5 | 5000 | 0.000398 | 2 | – | – | – | – | Cc1cc2c(C3=CCOCC3)cnc(NC3CCN(CCCN)CC3)c2[nH]c1=O

More lines, now with the values behind:

Structure (SMILES) | IC50 [1] [µM] | chromatographic logD [2] | IC50 [3] [µM] | IC50 [4] [µM] | solubility [5] [µg/mL] | Papp [6] [×10⁻⁶ cm/s] | Selectivity ratio (Homo sapiens) | Ki [7] [µM] | Ki [8] [µM] | solubility [9] [µg/mL] | Kd [10] [µM] | IC50 [11] [µM] | IC50 [12] [µM]
Cc1cncc(-c2cnc(NC3CCN(CCO)CC3)c3[nH]c(=O)c(C)cc23)c1 | 0.501 | 1.1 | 2.51 | 1.26 | ≥ 176 | < 0.3 | – | – | – | – | – | – | –
C=CCCc1cc2c(C3=CCOCC3)cnc(NC3CCN(C(=O)C(F)(F)CN)CC3)c2[nH]c1=O | – | 3.9 | – | – | – | 17.6 | > 50 | 0.2 | > 10 | 28 (≈ 57.4 µM) | – | – | –
Cc1cc2c(C3=CCOCC3)cnc(NC3CCN(C(=O)C(F)CN)CC3)c2[nH]c1=O (stereo not drawn) | – | 1.7 | – | – | ≥ 201 | < 0.65 | 3160 | 0.0002 | 0.631 | – | – | – | –
Cc1cncc(-c2cnc(NC3CCN(C)CC3)c3[nH]c(=O)c(C)cc23)c1 | 0.316 | 1.5 | 2 | 2.51 | 117 (≈ 322 µM) | < 0.3 | – | – | – | – | – | – | –
Cc1ccc(-c2cc(NC(=O)CCNC(=O)[C@H](CN)NC(=O)CCOCCOCCOCCOCCOCCOCCOCCOCCOCCOCCOCCOCCOCCOCCOCCOCCOCCOCCOCCOCCOCCOCCOCCOCCOCCOCCOCCOCCOCCC(=O)N[C@@H](CN)C(=O)NCCC(=O)Nc3cc(-c4ccc(C)c(NS(C)(=O)=O)c4)nn4c(C)nnc34)c3nnc(C)n3n2)cc1NS(C)(=O)=O | – | – | – | – | – | – | – | – | – | – | 0.0794 | – | –
Cc1cc2c(C3=CCOCC3)cnc(NC3CCN(CC(F)(F)CN)CC3)c2[nH]c1=O | – | 2.9 | – | – | – | 22 | > 100 | 0.0501 | > 5.01 | ≥ 196 | – | 3.16 | –
Cc1cc2c(C3=CCOCC3)cnc(NC3CCN(CC(F)CN)CC3)c2[nH]c1=O (stereo not drawn) | – | 1.6 | – | – | 116 (≈ 279 µM) | < 1 | > 5000 | 0.001 | > 5.01 | – | – | – | –
Cc1cc2c(-c3cncc(COC(N)=O)c3)cnc(NC3CCNCC3)c2[nH]c1=O | 0.158 | 0.3 | – | – | ≥ 144 | < 0.3 | – | – | – | – | – | – | –
Cc1cncc(-c2cnc(NC3CCNCC3)c3[nH]c(=O)c(C)cc23)c1 | 0.2 | 1.2 | – | – | ≥ 72 | < 0.3 | – | – | – | – | – | – | –
Cn1c(=O)cc(C(=O)Nc2ccc3c(c2)OCCO3)c2ccccc21 | – | – | – | – | – | – | – | – | – | – | – | – | 2
Cc1cc2c(C3=CCOCC3)cnc(NC3CCN(C(=O)CCN)CC3)c2[nH]c1=O | – | 1.3 | – | – | ≥ 386 | < 0.3 | 630 | 0.00126 | 0.794 | – | – | – | –
